# Test results as given in US8507523B2, “Therapeutic tetrahydroisoquinoline-based compositions for cancer therapy” (priority 2006, dated 2013).
# Where two headings read alike, the source gives them in different places.
# How the values were obtained:
# C6 glioma [1] = assay: C6 glioma transplanted into rat brain, tumor size determination; assay type: in vivo, Sprague-Dawley rats
# Description: For studies in which C6 glioma are transplanted into the brain, a C6 cell line produced in the inventors' laboratory that caries the β-galactosidase marker was used. The cell line was transfected with the pCMVβ expression vector (Clontech, Palo Alto, Calif.) and stable transfectants were selected using G418 (GibcoBRL). The glioma cells were plated at a density of 5×10^3 cells/cm^2 into T-75 culture flasks. The cells were allowed to grow to confluence in BME with 10% fetal calf serum. On the day before transplantation, the cultures were rinsed with Hank's Balanced Salt Solution placed in BME with 10% rat serum (Equitech-Bio Inc., Kerrville, Tex.).
# A total of 18 male Sprague-Dawley rats (250-350 g) were deeply anesthetized with (13 mg/kg, Rompom and 87 mg/kg, Ketalar) for the surgery. The rats were monitored during the surgery to insure that they remained deeply anesthetized and unresponsive to pain. […]
# The tumor was allowed to grow for three days prior to treatment. […] During the treatment period the animal were monitored daily. […]
# The size of tumors in each animal was measured. […] The digital images were analyzed to define the volume of the tumor using the program NIH image. […] The codes were released and the data compiled and analyzed using a Student t test. […]
# [2] = test system: normal primary cultures of rat brain astrocytes; assay: Dose response (percent survival) in primary cultures of astrocytes; assay type: cell-based; settings: 4 days of treatment
# Excerpt: (§1) 6,7-Dimethoxy-1-[4-(4-methoxypyridin-3-yl)benzyl]-1,2,3,4-tetrahydroisoquinolinehydrochloride (EDL-291) was synthesized as described herein in the laboratory of Dr. Duane D. Miller at The University of Tennessee Health Science Center. Briefly, the primary cultures of astrocytes and cultures of C6 glioma cell lines were handled identically with respect to treatment concentrations and manipulations of cells for the screening assays. The cells were trypsinized and transferred to 96-well plates at a cell density of 10^3 cells/mm^2 in the wells. The cells were grown overnight in 100 μL of 10% FCS BME in a 37° C. incubator containing a humid, 5% CO2 atmosphere.
# (§2) EDL291 was dissolved completely to make a […] stock solution and diluted to produce a series of concentrations. A 20 μL aliquot of these initial solutions was added to 180 μl of 2% FCS BME to produce the test concentration. The vehicle solution was tested as a control. […] Immediately before treatment, the 10% FCS BME was removed from the cells and replaced with the 180 μl of the treatment medium. The cultured cells (normal primary cultures of rat brain astrocytes or C6 glioma purchased from ATCC) were incubated with test compound for 4 days. The cells were fixed with 4% paraformaldehyde, stained with 0.1% Cresylecth violet stain, and quantitated. The screening data was collected as four wells for each dose per compound (screening) or concentration (dose response curve). Also, the average growth of 8 wells with no treatment was used as a negative control for each plate (100% growth). The cells for dose response curves were grown in the same media and were handled in a similar manner as in the screening assays.
# (§3) The cytotoxic character of each compound was reported as the percent survival, calculated as the average A560 for treated cells divided by A560 of untreated (100% control) cells, and expressed as a percentage. Values less than 100% indicate a cytostatic or cytotoxic effect. Dose response curves and EC50 values were attained via plots of percent survival vs. concentration.
# C6 glioma [3] = assay: Dose response (percent survival) in C6 glioma cell cultures; assay type: cell-based, rat
# Excerpt: as §1, §2, §3
# [4] = Acute toxicity observation in treated glioma-bearing rats; assay type: in vivo, Sprague-Dawley rats; settings: 40 mg/kg
# Description: The tumor was allowed to grow for three days prior to treatment. EDL-291 (40 mg/kg) was delivered by IP delivery twice a day for the next seven days. Animals were placed into one of two treatment groups: 9 rats received carrier solution only (Hanks Balanced Salt Solution, HBSS plus 10% DMSO) and 9 rats received EDL-291. During the treatment period the animal were monitored daily. After a treating the animals for 7 days, the rats were deeply anesthetized with 26 mg/kg Rompium and 174 mg/kg Ketalar and perfused through the heart with saline followed by 4% paraformaldehyde in phosphate buffer (pH 7.4). Brains were removed from the skull, post-fixed for 24 hours and then placed in a 30% sucrose solution. The brains were sectioned at […] with a freezing microtome. One 1-in-5 series of sections was mounted on glass slides and stained by the Nissl method.
# Approximately three days after tumor cell implantation, animals began receiving intraperitoneal administration of EDL-291 (40 mg/kg) twice daily for the next seven days. Animals were placed into one of two treatment groups: 9 rats received vehicle only (10% DMSO in Hanks Balanced Salt Solution, HBSS) and 9 rats received EDL-291. Animals were monitored daily during the treatment period. […]
smiles,measurement,setting,value
"COc1cc2c(cc1OC)C(Cc1ccc(-c3cnccc3OC)cc1)NCC2.Cl (stereo not shown) [EDL-291, 6,7-Dimethoxy-1-[4-(4-methoxypyridin-3-yl)benzyl]-1,2,3,4-tetrahydroisoquinolinehydrochloride]",tumors smaller on average than in control rats,"C6 glioma [1]; 40 mg/Kg BID IP for 7 days, n=9, p=0.02 (student t test)",32%
same,tumor size compared to vehicle control animals (in words),C6 glioma [1]; 40 mg/kg IP twice daily for 7 days,statistically significant reduction in tumor size
same,EC50,[2]; read-out: EC50 μM Astrocyte,26 µM
same,EC50,"[2]; Rattus norvegicus, Astrocyte, 96 h",22.8 µM
same,"fold difference in effect concentration, C6 glioma relative to normal brain astrocytes",C6 glioma [3]; EC50 astrocytes vs EC50 C6 glioma,36 fold
same,EC50,"C6 glioma [3]; Rattus norvegicus, C6 glioma, 96 h, C6 glioma cells, 4 days of treatment, percent survival",0.6 µM
same,acute toxicity,[4],no evidence of acute toxicity
